# Experimental data: US20110150769A1, “IDENTIFICATION AND USE OF COMPOUNDS FOR TREATING PERSISTENT PAIN” (priority 2009, published 2011)
# Entries after “also recorded” stand apart in the source; their conditions may differ.
# How the values were obtained:
# [1] = test system: WDR neurons in the dorsal horn of the spinal cord; assay: Electrophysiological recording of WDR neurons, spinal topical application; type: in vivo, mouse; conditions: for A-latency / A-threshold / C-latency / C-threshold: post-BAM 8-22
# Method: The electrophysiological recording of WDR neurons in the dorsal horn of the spinal cord was performed by an experimenter blinded to the genotype as previously described in Guan et al., 2006, J. Neurosci., 26:4298-4307. Mice were paralyzed with pancuronium bromide (0.15 mg/kg, i.p.) during neurophysiological recording. Throughout the experiment, anesthesia was maintained with a constant level of isoflurane (1.5%) carried in med-air. A spinal unit with a cutaneous receptive field located in the plantar area of the hind paw was located by applying mechanical stimuli. WDR neurons were defined as those that responded to both innocuous and noxious mechanical stimuli and that had increasing rates of response to increasing intensities of stimuli. Electrical stimuli were applied through a pair of fine needles inserted subcutaneously across the central plantar area of the hind paw 0.3-0.4 cm apart. Extracellular recordings of individual neurons were obtained by using fine-tip (<1.0 μm) paralyn-coated tungsten micro-electrodes ([…] at 1 kHz).
# BAM 8-22 or vehicle control was applied directly to the exposed surface of the spinal cord at the recording segment in a volume of 30-50 μl following pre-drug tests. The effects of BAM 8-22 on the spontaneous activity of WDR neurons were examined within 0-10 min after application. The evoked neuronal responses were recorded 10-30 minutes after drug application. Only one neuron in each animal was used to test the drug effects. The post-drug responses were compared with the pre-drug responses, allowing each neuron to act as its own control.
# The number of action potentials (APs) evoked by graded electrical stimuli was compared between two genotypes, using a two-way mixed-model analysis of variance (ANOVA) with Fisher's protected least significant difference (LSD) post-hoc test. Student's t-test was used to compare the recording depth, activation threshold and latency of the first A-fiber-mediated and the first C-fiber-mediated responses, respectively, between the two groups. For wind-up, the raw data were the number of APs in the C-component evoked by each stimulus in a train of repetitive electrical stimulation. Since the number of APs in the C-component varies among WDR neurons, the raw data for each neuron were normalized to the first response in each trial (input) and then averaged. A two-way mixed-model ANOVA was used to compare wind-up and the averaged C-component responses to the last 10 stimuli (7th-16th) of the trial between the two genotypes and between pre- and post-drug conditions. Data are presented as mean±standard error of mean (S.E.M). Statistical comparisons were made using unpaired Student's t-test and differences were considered significant at p<0.05.
# rat MrgprC = target: T1, rat MrgprC (Rattus norvegicus, UniProt Q8R4G1); conditions: Han et al, 2002, Lembo et al.; cited from earlier work
# T1 sequence (Q8R4G1 1-323): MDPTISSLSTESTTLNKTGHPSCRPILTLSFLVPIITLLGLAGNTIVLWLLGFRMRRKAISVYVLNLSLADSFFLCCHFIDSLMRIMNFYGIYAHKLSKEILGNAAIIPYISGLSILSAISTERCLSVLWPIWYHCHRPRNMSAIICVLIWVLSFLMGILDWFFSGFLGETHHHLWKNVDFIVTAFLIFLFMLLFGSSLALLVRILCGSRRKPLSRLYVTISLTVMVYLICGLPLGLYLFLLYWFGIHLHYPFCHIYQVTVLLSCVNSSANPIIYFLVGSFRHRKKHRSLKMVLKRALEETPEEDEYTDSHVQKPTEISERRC
# [2] = Mrgpr-clusterΔ−/− mice, 0.1 mM, 30-50 μl
substance,measurement,setting,value
BAM 8-22,input value and C-component responses of WDR neurons to 0.5 Hz stimulation,[1]; Mrgpr-clusterΔ−/− mice,significantly increased
same,input value and C-component responses of WDR neurons to repetitive (0.5 and 1.0 Hz) stimulation,[1]; [2],significantly increased
same,wind-up levels (normalized to the input value),[1]; [2],not increased
same,C-component responses of WDR neurons to graded electrical stimulation,"[1]; Mrgpr-clusterΔ−/− mice, n=17, 0.1 mM, intensities >1.0 mA (2.0-5.0 mA)",significantly increased
same,A-latency,[1]; Mrgpr-clusterΔ−/−,12.9 ± 0.6 ms
same,A-threshold,[1]; Mrgpr-clusterΔ−/−,0.19 ± 0.03 mA
same,C-latency,[1]; Mrgpr-clusterΔ−/−,118 ± 4 ms
same,C-threshold,[1]; Mrgpr-clusterΔ−/−,1.9 ± 0.6 mA
same,windup response after saline wash-out,"[1]; WT WDR neuron, 0.5 Hz, 10-30 min after saline wash-out",partially recovered
same,wind-up / C-component responses to 0.5 Hz and 1.0 Hz stimulation,"[1]; WT mice, n=25, 0.1 mM, 30-50 μl",significantly attenuated; also recorded: inhibited
same,windup of WDR neurons to 0.5 Hz stimulation,"[1]; WT mice, n=25, spinal superfusion, 10-30 min after application",significantly attenuated; also recorded: significantly decreased; also recorded: substantially attenuated
same,A-latency,[1]; Wild-type,12.1 ± 0.7 ms
same,A-threshold,[1]; Wild-type,0.17 ± 0.03 mA
same,C-latency,[1]; Wild-type,115 ± 4 ms
same,C-threshold,[1]; Wild-type,1.7 ± 0.4 mA
same,threshold and latency of the first C-fiber-mediated action potential,[1]; either WT or Mrgpr-clusterΔ−/− mice,unaffected
same,activation of rat MrgprC,rat MrgprC,specifically activates
